The structures appear in SMILES notation. The source made the active and inactive calls. No rule for the calls is given here. Residues, ends and D or L forms follow the SMILES beside them. *: point of attachment. Cbz = O=C(OCc1ccccc1)*

In the first test the test system is mammalian cell viability, cytotoxicity counter-screen. Nature of the test: mammalian cell cytotoxicity, dose response, cytotoxicity control for M. tuberculosis growth inhibitor project, purified and synthesized compounds, set 2 (AID 504562).
Settings: not given
On to `CCOC(=O)c1ccc(NC(=O)Cn2ncc(Cl)c(Cl)c2=O)cc1`, for which the CC50 was 7.7 µM.

With `COC(=O)c1cc(=O)n(-c2ccc(F)cc2)c(=Nc2ccc(F)cc2)s1`, the CC50 was 20.8 µM.

As to `Cc1ccc(C(=O)N/N=C(/CC(=O)c2cccs2)C(F)(F)F)cc1`, the CC50 was 31.7 µM.

Consider `CCC(C)Nc1ccc(NC(C)CC)cc1` (stereo unspecified), for which the CC50 is 16.5 µM.

With `S=c1nc[nH]c2nc[nH]c12`, the 50% cytotoxic concentration (CC50) was 38.1 µM.

For `CCOC(=O)CNC(=O)[C@H](Cc1ccccc1)NC(=O)OCc1ccccc1` (Cbz-Phe-Gly-OEt), the CC50 was 68.9 µM.

As to `CC(C)NC(=O)c1sc(=S)n2c1[nH]c(=O)c1ccc(C(=O)NCCc3ccc(Cl)cc3)cc12`, the CC50 was 68.8 µM.

Consider `COC(=O)C(Nc1nc(SCC(=O)NC2CCCCC2)nc2ccccc12)c1ccccc1` (stereo unspecified), for which the CC50 was 88 µM.

Regarding `Cc1ccc2c(c1)c(C1=c3ccccc3=NC1=O)c(O)n2C`, the cytotoxic concentration (CC50) was 14.3 µM.

For the compound `Cc1cccc(/C=C/C(=O)c2ccc([N+](=O)[O-])o2)c1`, the CC50 is 53.1 µM.

For `CNc1nc(SCc2ccccc2Cl)nc2c1CCCC2`, the CC50 was 46.1 µM.

Test system in another test: not listed separately
Described as above. Particulars: mammalian cell viability, cytotoxicity counter-screen; at 100 µM (top of the series).
As for `COC(=O)C(C)Oc1ccc(-c2nccc(-c3ccccn3)n2)cc1` (stereo unspecified), the viability was 100% (inactive).

In the case of `COc1cc(NC(=O)C/C(C)=N/NC(=O)c2ccccn2)c(OC)cc1Cl`, the viability was 103% (inactive).

As for `CCOC(=O)COn1c2c(c3c4no[n+]([O-])c4ccc31)CCCC2`, the viability was 87.9% (inactive).

Regarding `O=C(CSc1nc2ccccc2c(=O)[nH]1)NCc1ccc(Cl)cc1`, the viability was 89.5% (inactive).

For `Nc1c(C(=O)NC2CCCCC2)nsc1C(=O)OCC(=O)NC1CCCCC1`, the viability was 93.5% (inactive).

Consider `Cc1nc(SCC(=O)NC2CCCCC2)[nH]c(=O)c1C`, for which the viability was 91.7% (inactive).

As for `CCc1ccc(/C=C2/C(=O)N(C)C(=S)N2CC(=O)OC)s1`, the viability is 101% (inactive).

Take `CCOC1OC(=O)C(Cl)=C1Nc1ccccc1C` (stereo unspecified): the viability was 91.1% (inactive).

On to `COC(=O)CCc1nc2c(C#N)c(-c3ccc(Cl)cc3)ccn2n1`, for which the viability was 99.6% (inactive).

Turning to `COC(=O)C1CC(=O)N(c2ccc(OCc3ccccc3Cl)cc2)C1` (stereo unspecified), the viability is 100% (inactive).

Consider `COC(=O)c1ccc(CNc2c(N3CCCC3)c(=O)c2=O)cc1`, for which the viability was 97.3% (inactive).

For `CC[N+](C)(CC)CCCCOc1ccc2c(c1)C(=O)c1cc(OCCCC[N+](C)(CC)CC)ccc1-2`, the viability is 101% (inactive).

Consider `O=C(CSc1nc2ccccc2c(=O)[nH]1)NC1CCCCC1`, for which the viability was 97.5% (inactive).

`O=C(/C=C\c1cccs1)N1CCN(Cc2ccc3c(c2)OCO3)CC1`: the viability is 91.2% (inactive).

Take `Cc1ccc2ccc3ccc(C)nc3c2n1`: the viability is 68.3% (inactive).

Take `O=C1C(Br)=Cc2cccc3cccc1c23`: the viability is 89.2% (inactive).

`CC(=NCc1ccc2c(c1)OCO2)C1=C(O)c2ccccc2C1=O`: the viability is 88.7% (inactive).

With `Cc1ccc(NC(=O)C2C3/C=C\CCCCC32)cc1C` (stereo unspecified), the viability is 97% (inactive).

As to `CCOC(=O)COc1ccc(/C=C2\NC(=S)N(CC)C2=O)cc1`, the viability is 91.2% (inactive).

On to `CC1CCN(C(=O)C2CCN(c3nnc(-n4cccc4)s3)CC2)CC1`, for which the viability is 92.8% (inactive).

The values above are taken from PubChem BioAssay AID504562 (Southern Research Specialized Biocontainment Screening …, 2011).
